This passage reports IC50 and inhibition results from patent publication US8394785B2, “Methods for the treatment and amelioration of urticaria” (Jado Technologies GmbH, priority 2005, dated 2013).

In experiment [1] the test system is Rat basophilic leukemia (RBL-2H3) cells. As to the kind of experiment: Mast cell degranulation assay (β-hexosaminidase release). The note with it: Rattus norvegicus. The experiment is classed as cell-based. On the procedure:
The assay measures release of β-hexosaminidase as a marker of release of various preformed pharmacological agents in response to clustering of the high affinity IgE receptor (FcεRI) by means of multivalent antigen-IgE complexes. Rat basophilic leukemia (RBL-2H3) cells, a commonly used model of mast cell degranulation, are sensitized with anti-DNP specific IgE and challenged with multivalent DNP-BSA. The release of β-hexosaminidase into the supernatant is measured by enzymatic conversion of the fluorogenic substrate 4-methylumbelliferyl-N-acetyl-β-D-glucosaminide to N-acetyl-β-D-glucosamine and highly fluorescent methylumbelliferone and quantified by fluorescence detection in a Tecan Safire™ plate reader.
RBL-2H3 cells obtained from the German Collection of Microorganisms and Cell Cultures (Braunschweig, Germany) were maintained in 70% Minimum Essential Medium with Earle's Salts/20% RPMI 1640/10% heat-inactivated fetal calf serum) supplemented with 2 mM GlutaMAX™-I in 5% CO2 at 37° C. and routinely checked to be free of mycoplasma contamination. Cells grown in 175 cm^2 flasks were split with 0.05% Trypsin/EDTA and resuspended in 20 ml fresh medium. One hundred and 50 μl cell suspension were plated per well into 24 well cluster plates (Costar, Schiphol-Rijk, Netherlands) and cells were used one or two days after plating, respectively.
Two to 24 hours before incubation with test compounds the medium was removed and cells were sensitized with 0.4 μg/ml anti-DNP IgE in fresh medium. Following sensitization, cells were washed once with warm TyB and incubated for 60 min with test compound at a maximum of 100 μM or the highest non-toxic concentration (total vehicle concentration adjusted to 1%) or 1% vehicle in TyB at 37° C. DNP-HSA (0.1 μg/ml final concentration) or buffer alone was added and cells incubated for 15 min at 37° C. Plates were centrifuged at 4° C. for 5 min at 250×g and immediately transferred to ice. Supernatants were collected and the cells lysed with lysis buffer. Hexosaminidase activity in supernatants and lysates was measured by incubating 25 μl aliquots with 100 μl MUG substrate solution in a 96-well plate at 37° C. for 30 min. The reaction was terminated by addition of 150 μl stop solution. Fluorescence was measured in a Tecan Safire™ plate reader at 365 nm excitation and 440 nm emission settings.
Each compound is tested in duplicates in at least three independent experiments. β-hexosaminidase release is calculated after subtraction of unspecific release (release without addition of antigen) using the formula: % degranulation=100×RFU supernatant/RFU lysate
Inhibition of β-hexosaminidase release with respect to control is calculated as
follows: % inhibition=100×(1−(RFU supernatant of compound/RFU supernatant of control))

Another experiment relates to human basophils. As to the kind of experiment: Histamine release assay, anti-IgE induced, human basophils. The experiment is classed as cell-based. The note with it: 10 minutes pre-incubation, read-out: maximal inhibitory effect on anti-IgE induced histamine release. On the procedure: Human basophils were isolated from whole blood using ficoll paque (D=1.077). Briefly, heparinized whole blood was diluted 1:3 with PBS (w/o Ca and Mg), layered on the ficoll paque solution, and centrifuged for 30 min at 400×g. Low-density particles such as lymphocytes, monocytes, basophils, and platelets were recovered from the interface between the plasma and ficoll solution. The cell suspension from the interface was centrifuged twice at 200×g for 10 min for removal of thrombocytes from the basophil fraction. The number of basophils in the cell suspension was determined by Toluidin blue staining. The yield of basophils was approximately 2%. These pre-purified basophils were used for the histamine release assay. For the cytokine release assays, basophils were further purified using the “Basophil Isolation Kit” for depletion of non-basophils from the interface cell suspension. […] The quantification of histamine levels was achieved using an automated histamine-analyser system (Firm Borgwelt Technik). The wavelength of the excitation was 355-360 nm and the emission wavelength of fluorescence measurement was 450-460 nm. The intensity of fluorescence was directly proportional to the concentration of histamine in the samples. The amount of released histamine was calculated according to the following formula: net histamine release=(release−blank)×(100/complete). […]

Take `CCCCCCCCCCCCCCCCOP(=O)([O-])OCC[N+](C)(C)C` [Compound 3, 1-hexadecylphosphoryl-choline]: the IC50 in experiment [1] (1 h, concentration at which 50% of maximal inhibition is reached, RBL-2H3, 60 min incubation with compound, DNP antigen challenge, read-out: ID50 (the source's name)) came out at 4.6 µM. For the same compound, in experiment [1] (RBL-2H3, 10 μM, read-out: maximum inhibition (concentration used)), the inhibition at 10 µM was 87%. The inhibition at 25 µM is more than 75% in experiment [1] (RBL-2H3, at or 25 μM, read-out: inhibition of degranulation) and 10% in the experiment with human basophils.
